The values that follow come from a melting point compilation (Tetko et al.; mined from patent text by program, amines drawn as free bases though some values may be those of a salt).

One may read the melting point as the temperature, or range, at which the solid turns liquid.

Each structure is given as a SMILES string. A value given as a limit tells only on which side of the number the result lay.

With `CCOc1cc(C)ccc1C1CCN(CCCCC(=O)Nc2ccc(-c3ccc(C(F)(F)F)cc3)cc2)CC1`, the melting point was 178 °C.
`CCOC(=O)C(C#N)NC(=O)OCc1ccccc1` (stereo not given): the melting point lay in the range of 111 to 112 °C.
As to `CC(=O)c1c(C)c2cnc(N)nc2n(C2CCCC2)c1=O`, the melting point fell in the range of 182 to 186 °C.
Compound `CCOc1ccc(CCCCCCC(=O)O)cc1` had a melting point of 65 to 66 °C.
For `Nc1ccc(C2=NC(O)C(=O)Nc3ccc(Cl)cc32)cc1` (stereo not given), the melting point was over 350 °C.
Compound `O=C1CCC(N2Cc3c(OCc4cn5cc(CN6CCOCC6)ccc5n4)cccc3C2=O)C(=O)N1` (stereo not given) registered a melting point of 155 to 157 °C.
`CC/C=C/C(=O)NC(=O)OC(C)(C)C` showed a melting point of 78 to 79 °C.
The compound `CC(C)(Br)C1CC(=O)OC1OCc1cccc(Oc2ccccc2)c1` (stereo not given) registered a melting point of 60 °C.
In the case of `COc1cccc2c1cc(C(=O)OCc1ccccc1)n2CC(=O)OC(C)(C)C` it was 96 to 98 °C.
In the case of `COc1ccc2c(c1)OCC(Cc1cccnc1)C2=O` (stereo not given) it was 95 to 99 °C; in that of `O=c1nc(CN2CCC[C@H](OCc3cc(Cl)cc(Cl)c3)[C@@H]2c2ccccc2)[nH][nH]1`, over 220 °C.
Compound `O=C1Cc2cc(Cl)ccc2N1O` came in with a melting point of 202 to 208 °C.
In the case of `c1ccc(COc2cccc(-c3nc(COc4ccc(CCCn5ccnc5)cc4)co3)c2)cc1` it was 112 to 113 °C.
`CONC(=O)Nc1ccc(-c2nc3n(Cc4c(F)cccc4F)cc(C(=O)OC(C)C)c(=O)n3c2CN(C)Cc2ccccc2)cc1` displayed a melting point of 156 to 158 °C.
Compound `COC(=O)c1ccc(OCC2CC(=O)N(c3ccc(N)cc3)C2)cc1` (stereo not given) registered a melting point of 136 to 138 °C.
In turn, `CCCn1nnc2c(Nc3ccc(C(C)C)cc3Br)nc(C)nc21` showed a melting point of 80 to 81 °C.
For `CC(C)(C)NC(=O)[C@@H]1CNNC1=O`, the melting point is 175 to 178 °C.
Compound `Nc1nc(Cl)nc2c1ncn2[C@@H]1S[C@H](CO)[C@@H](O)[C@H]1O` had a melting point of 220 to 222 °C.
The value for `CCOC(=O)c1c(N)nc(C)c(NC(C)=O)c1C` was 168 to 170 °C; that for `CNC(=O)Nc1cccc2c1C(=O)c1c-2n[nH]c1-c1ccc(OC)cc1` was over 300 °C; that for `CCc1c(C(=O)O)c(C(F)F)nc(C(F)(F)F)c1C(=O)O` was 237 to 239 °C.
`C=CCNC(=O)C1CCc2cc(Oc3ccccc3)ccc2O1` (stereo not given) displayed a melting point of 104 to 106 °C.
On to `Cn1nc(-c2ccccc2)c2c(C(F)(F)F)cc(OCC(=O)N[C@H]3CCc4ccccc43)nc21`, for which the melting point was 203 to 205 °C.
For the compound `O=C(Nc1ccc2c(c1)CCNO2)c1cc2cc(F)ccc2n1Cc1cccc(F)c1`, the melting point lay in the range of 216 to 217 °C.
`O=C1OC(=O)c2cc3ccc([N+](=O)[O-])cc3c3cccc1c23` gave a melting point of 290 °C.
As to `CN1C(=O)C=C(c2ccc3c(c2)CCCC3)C1=O`, the melting point lay in the range of 104 to 107 °C.
In the case of `Cc1cc(=O)c2ccc(N)cc2s1`, the melting point fell in the range of 165 to 169 °C.
Regarding `Cc1cc(Br)ccc1C(CO)NC(=O)c1c(Cl)cncc1Cl` (stereo not given), the melting point lay in the range of 192 to 194 °C.
In turn, `Cc1cc(NC(=O)C(CS)CC(C)C)cc(C(=O)O)c1` (stereo not given) returned a melting point of 193 to 195 °C.
For the compound `COC(=O)c1ccc(C(C(N)=O)C(C)c2cc([N+](=O)[O-])ccc2N2CCCCC2)cc1` (stereo not given), the melting point fell in the range of 178 to 180 °C.
In turn, `COc1cc(Nc2nccc(-c3ccc4ccccc4c3)n2)cc(OC)c1OC` registered a melting point of 156 °C.
On to `CSc1cc2c(cc1C(F)(F)F)N(C(=O)Nc1ccc(-c3csc(-c4ccncc4)n3)cc1)CC2`, for which the melting point is 253 to 254 °C.
`CN(C)C1(c2cccc(F)c2)CCC(=O)CC1` came in with a melting point of 83 to 88 °C.
On to `O=C(O)Cc1cccc2c(=O)cc(-c3ccc(F)c(F)c3)oc12`, for which the melting point was in the range of 145 to 147 °C.
In the case of `Cc1cc(Cl)cc(C#N)c1` it was 132 to 133 °C.
Consider `N#CCCNC(=O)C1=CC(CF)(CF)Oc2ccc(C(F)(F)C(F)(F)C(F)(F)F)cc21`, for which the melting point was in the range of 135 to 136 °C.
Regarding `O=C(O)CCc1cnoc1-c1ccc(Cl)c(Cl)c1`, the melting point was 171 to 172 °C.
Turning to `CC(C)(C)OC(=O)Cn1c(C(=O)O)cc2ccccc21`, the melting point is 156 to 157 °C.
On to `CN(Cc1sc2c(=O)c(C(=O)NCc3ccc(Cl)cc3)cn(C)c2c1CNS(C)(=O)=O)C[C@@H](O)c1ccccn1`, for which the melting point was in the range of 171 to 177 °C.
`CC(=O)OC1OCC[C@@H]1NC(=O)[C@H](Cc1ccccc1)NC(=O)OC(C)(C)C` (stereo not given in full) yielded a melting point of 156 to 157 °C.
Turning to `O=[N+]([O-])c1cccc(Cn2ccnc2)c1`, the melting point is 97 to 98 °C.
In turn, `COC=C(C#N)C(=O)c1cc(F)c(Cl)cc1Cl` registered a melting point of 159 °C.
In turn, `COC(=O)C1CC(O)C(=O)N1` (stereo not given) showed a melting point of 85 to 86 °C.
Consider `CCOC(=O)C1=C(COCCNC(=O)n2ccnc2)NC(C)=C(C(=O)OC)C1c1ccccc1Cl` (stereo not given), for which the melting point was 149 to 151 °C.
As for `OCC=Cc1ccc(-c2ccc(OC(F)(F)F)cc2)cc1`, the melting point was 121 to 123 °C.
In the case of `CCCSc1c2c(=O)n(C)c(=O)n(CC(C)C)c2nn1Cc1cccc2ccccc12` it was 105 °C; in that of `CN1C(=O)CN=C(c2cccc(C(F)(F)F)c2)c2ccccc21`, 121 to 122 °C; in that of `CC1(O)c2ccccc2C(C)(O)c2ccccc21` (stereo not given), 178 to 179 °C.
The value for `CCOC(=O)C1[C@@H]2[C@@H](O)[C@@H]3O[C@H](c4ccccc4)OC[C@H]3O[C@H]12` (stereo not given in full) was 137 to 139 °C; that for `CCOC(=O)C1=C(C(F)(F)F)Nc2n[nH]cc2C1c1ccc(Cl)cc1` (stereo not given) was 176 to 178 °C.
With `O=C1NC(=O)C2(C=Cc3c2csc3Cl)N1` (stereo not given), the melting point fell in the range of 224 to 225 °C.
`CS(=O)(=O)c1ccc(Oc2cc(OCc3ccccc3)c3[nH]c(C#N)cc3c2)cc1` had a melting point of 209 to 210 °C.
`CCN(CC)CCNC(=O)N1CCC(S(=O)c2ccc(Cl)cc2)C1` (stereo not given) displayed a melting point of 128 to 130 °C.
In the case of `CC(=O)OC1Oc2ccc(OS(=O)(=O)N(C)C)cc2C1(C)C` (stereo not given) it was 67 to 68 °C; in that of `CC(=O)N1CCn2c(c(C3=C(c4cn(C)c5ccccc45)C(=O)NC3=O)c3ccccc32)C1`, 308 to 310 °C.
The value for `CCCCCN(C(=O)Nc1ccc2c(c1)C(C)(C)CCC2(C)C)c1ccc(C(=O)O)cc1` was 201 to 202 °C; that for `CC(=O)C(=Cc1cc(O)c(O)c(C(F)(F)F)c1)C(C)=O` was 198 to 205 °C; that for `Cc1ccc(C2c3c(C)c(NC(=O)c4ccc5c(c4)OCO5)c(C)c(C)c3OC2(C)C)cc1` (stereo not given) was 164 to 165 °C.
For the compound `COc1ccc(C=C(C#N)C(N)=O)c([N+](=O)[O-])c1OC`, the melting point fell in the range of 194 to 195 °C.
Compound `CCCc1nc2c(c(C)c(C)n3nnnc23)n1CC(C)(C)NC(=O)c1ccccc1` had a melting point of 221 to 223 °C.
For the compound `N#Cc1nn(-c2c(Cl)cc(C(F)(F)F)cc2Cl)c(N)c1C#CCO`, the melting point was 237 to 239 °C.
For the compound `COC(=O)Cn1c(=O)c2ccccc2n(CCCCN2CCC(OC(c3ccccc3)c3ccccc3)CC2)c1=O`, the melting point lay in the range of 91 to 93 °C.
As to `COc1ccc(-c2ccc(C(=O)c3ccccc3)cc2)cc1`, the melting point lay within 167 to 168 °C.
Consider `COc1ccnnc1NS(=O)(=O)c1cccc(Cl)c1Cl`, for which the melting point lay within 210 to 211 °C.
Consider `CCOC(=O)CC(Cc1ccccc1)NC(=O)c1ccc(OC)cc1` (stereo not given), for which the melting point is 102 to 104 °C.
In the case of `CCN(CC)CC1CCn2c(nc3ccccc32)S1` (stereo not given) it was 93 to 94 °C; in that of `CN(CCc1ccccc1)C(=O)Cc1ccc(OCc2ccccc2)c(/C=C/C(=O)O)c1`, 48 to 51 °C; in that of `CCc1cc2cc(OC)c(Cl)c(Cl)c2s1`, 73 to 74.5 °C.
With `OC(c1cccc2nc3n(c12)CCCN3c1ccc(Cl)cc1Cl)C1CC1` (stereo not given), the melting point lay within 208 to 209 °C.
In the case of `N#Cc1cc(CO)nc(C(=O)Nc2ccc(F)cn2)c1` it was 232 °C; in that of `CN1C2CCC1CC(O)(c1ccc(Cl)cc1)C2` (stereo not given), 186 to 187 °C.
The value for `COC(=O)c1c(Br)c(Cl)cc2nn(C)cc12` was 141 to 142 °C.
The value for `CCc1cc2c(cc1O)CCC1C2CCC2(C)C(CCO[Si](c3ccccc3)(c3ccccc3)C(C)(C)C)CCC12` (stereo not given) was 134 to 135 °C; that for `CCCc1ccc(S(=O)(=O)Nc2ccc3nc(C)cnc3c2)cc1` was 136 °C; that for `c1ccc2nc(COc3cccc4ccccc34)ccc2c1` was 99 to 101 °C.
The compound `O=Cc1cc(Cl)c(O)c(O)c1Cl` had a melting point of 176 to 178 °C.
As to `Cc1cc(=O)c(-c2ccc(Oc3cccc(OC(F)(F)F)c3)cc2)c(C)[nH]1`, the melting point was 244 to 246 °C.
`CCOC(=O)CCC1CCC2C(C=CC3=CCCc4c3n2c2ccncc42)C1` (stereo not given) displayed a melting point of 112 °C.
`COc1ccc2c(c1)C(=O)N(c1ccc3c(cnn3C)c1)C2` returned a melting point of 213 to 214 °C.
In the case of `CC1CCN(Cc2ccc(COc3cccc4c3CN(C3CCC(=O)NC3=O)C4=O)cc2)CC1` (stereo not given) it was 189 to 191 °C; in that of `CC(C)(C)c1noc(-c2cccc(Cl)n2)n1`, 103 to 104 °C; in that of `CC1CN(c2cc3c(cc2F)c(=O)c(C(=O)O)cn3CCF)CCN1` (stereo not given), 226 to 227 °C.
`O=P(O)(O)Cc1ccc(C(F)(F)F)cc1` showed a melting point of 163 to 164 °C.
Turning to `CCCN(C1CC(C)(C)Oc2ccc(OCc3ccccc3)cc21)S(=O)(=O)CC` (stereo not given), the melting point lay within 102 to 103 °C.
Compound `CC1(C)CC(Cl)C(=Cc2ccc(F)cc2)C1=O` (stereo not given) registered a melting point of 69 °C.
Turning to `CC(C)(C)OC(=O)C(NN)C(=O)O` (stereo not given), the melting point is 144 to 146 °C.
`CCCCOc1cc(C(=O)O)n(Cc2ccc(C(F)(F)F)cc2)n1`: the melting point was in the range of 128 to 129 °C.
In turn, `CN1Cc2c(C(=O)OCCO)ncn2-c2ccccc2C1=O` registered a melting point of 222 to 223 °C.
`N#Cc1ccc(-c2ccc(N3CCOCC3)cc2)[nH]c1=O` came in with a melting point of 272 to 275 °C.
In turn, `COc1ccc2c(ccc3c4ccc(OC)cc4c(=O)n(-c4ccc(O[Si](C)(C)C(C)(C)C)cc4)c23)c1` came in with a melting point of 211 to 213 °C.
